The values below come from PubChem BioAssay (NCI).

Each structure is given as a SMILES string.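 Growth conditions: 96-well plates. Treatment: test compound, 48 hours, 5 concentrations. Analysis: linear interpolation between bracketing concentrations; unreached endpoints set to highest concentration. At the GI50, growth is halved. TGI: concentration producing complete growth inhibition.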

A word on the TGI: it is the concentration at which net growth stops. Read a low TGI as greater sensitivity of the cells. As usually defined, the GI50 is the concentration that inhibits growth by half.

What all share (test): DTP human tumour cell line panel, 48 h
The test system of assay [1] is A498 renal.
Assay [2] relates to A549 NSCLC.
Assay [3] has as its system U251 CNS.
Assay [4] has as its system OVCAR-4 ovarian.
Assay [5] relates to SK-OV-3 ovarian.
Assay [6] deals with K-562 leukemia.
Assay [7] deals with SW-620 colon.
In assay [8] the test system is MOLT-4 leukemia.
For assay [9], the system named is RXF 393 renal.
Assay [10] concerns HL-60(TB) leukemia.

Take `Nc1ccccc1Nc1ccccc1C(=O)[O-].Nc1ccccc1Nc1ccccc1C(=O)[O-].[Cu+2]`: the total growth inhibition concentration (TGI) in [1], in [2], in [3], in assay [4], in assay [5] and in assay [6] was more than 100 µM in each case. The TGI in [7] and in assay [8] was more than 100 µM in each case. Further, the GI50 in [4] was 37.7 µM.
As to `CSC1=Nc2ccccc2N(C)c2c1c(-c1ccccc1)nn2C`, the TGI in assay [2] was more than 100 µM; in [3], more than 100 µM; in [9], more than 100 µM; in assay [10] it was 34.3 µM; in assay [4], more than 100 µM; in [5], more than 100 µM. In addition, the TGI in assay [6] was 55.9 µM; in assay [7] it was more than 100 µM; in assay [8] it was 31.7 µM.
In the case of `O=C1CC(=O)N(c2ccccc2)N1/C(=C/c1ccccc1)c1ccccc1`, the TGI in assay [2] is more than 100 µM; in assay [3] it was 27.7 µM; in assay [9], 36.5 µM; in [4], 60.5 µM; in assay [5], 76.5 µM; in assay [6] it was more than 100 µM. The TGI worked out at 37.7 µM in assay [7] and 6.54 µM in assay [8].
With `C=CC(=O)Nc1cccc(-c2nc(SC)nc(Nc3ccccc3OC)c2C#N)c1`, the GI50 in assay [1] was 2.8 µM; in assay [2], 2.08 µM; in assay [9] it was 1.95 µM; in assay [10], 2.53 µM; in assay [5], 6.09 µM; in [6] it was 2.03 µM. Also, in assay [8], the GI50 is 2.62 µM. The TGI in assay [1] stood at 9.34 µM; in assay [2] it was 5.24 µM; in assay [9] it was 5.42 µM; in [10] it was 13 µM; in assay [5], 26.9 µM; in [6] it was 5.62 µM. The same compound displayed a TGI in [8] of 83.5 µM.
For `CC(C)CC(N)C(=O)OCN1C(=O)C2C3C=CC(C2C1=O)C1C2C(=O)N(COC(=O)C(N)CC(C)C)C(=O)C2C31` (configuration not stated), the TGI in assay [1] is more than 100 µM; in [2] it was more than 100 µM; in assay [3], more than 100 µM; in assay [9], more than 100 µM; in assay [10], 65.2 µM; in assay [4] it was more than 100 µM. Further, the TGI in [5] was more than 100 µM; in assay [6], more than 100 µM; in [7], more than 75.6 µM; in assay [8], more than 100 µM.
For the compound `CCn1cc(C(c2ccc(Cl)cc2)n2ccnc2)c2cc(Br)ccc21` (configuration not stated), the TGI worked out at 27 µM in assay [1]; 24 µM in [2]; 30.5 µM in assay [3]; 29.9 µM in assay [9]; 22.8 µM in [4]; 33.3 µM in assay [5]. Moreover, the TGI in [6] was 33.5 µM; in [8], more than 100 µM.
Turning to `Cc1ccc2c(c1)nc(N)n[n+]2[O-]`, the TGI in [1], in [2], in [3], in assay [10], in [4] and in assay [5] was more than 100 µM throughout. In addition, the TGI in assay [6], in [7] and in assay [8] was more than 100 µM in each case.
As for `OCC1CCCC(n2cnc3c(=S)nc[nH]c32)O1` (configuration not stated), the TGI in assay [1], in assay [2], in [3], in assay [9], in assay [4] and in [5] was more than 100 µM each time. Besides, the TGI in [6] and in assay [7] was more than 100 µM in each case.
As for `Cc1[nH]c(/C=C2\C(=O)Nc3ccc(S(=O)(=O)Cc4c(Cl)cccc4Cl)cc32)c(C)c1C(=O)N1CCC[C@@H]1CN1CCCC1`, the GI50 in assay [1] was 18.7 µM; in [10], 1.97 µM; in [4], 26.1 µM; in [5] it was 22.4 µM; in [6], 1.63 µM; in [7], 1.78 µM. Moreover, the TGI in [1] was 52.8 µM; in [10], 5.49 µM; in assay [4], 70.7 µM; in [5] it was 59.1 µM; in [6], more than 100 µM; in [7], 3.29 µM.
On to `COC1OC(=O)[C@H]2O[N+]([O-])=C(C)[C@@H]12` (some centres not stated), for which the TGI in assay [1], in assay [2], in assay [3], in assay [9], in assay [10] and in assay [4] was more than 100 µM in each case. The TGI in assay [5], in assay [6], in assay [7] and in assay [8] was more than 100 µM each time.
Regarding `O=C(O)c1ccc(NC(c2ccccc2)c2ccc3cccnc3c2O)cc1` (configuration not stated), the TGI in [1] was 78.4 µM; in [2], more than 100 µM; in assay [3], more than 41.2 µM; in assay [9], 28.8 µM; in [10], 10.4 µM; in assay [4], 36.6 µM. Further, the TGI in [5] was more than 100 µM; in assay [6], more than 49.8 µM; in [7], more than 55.8 µM; in assay [8] it was more than 42.6 µM.
`N#Cc1c(NC(=S)NC(=O)c2ccccc2)nc2c(c1-c1ccccc1)CCC2`: the TGI in assay [2], in assay [3], in assay [10], in [4], in [5] and in [6] was more than 100 µM each time. Further, the TGI in assay [7] and in assay [8] was more than 100 µM throughout.
Consider `COc1cc2oc(-c3ccc(O)cc3)c(OC3OC(C)C(O)C(O)C3O)c(=O)c2c(O)c1OC` (configuration not stated), for which the TGI in assay [1], in assay [2], in assay [3], in [9], in assay [10] and in assay [4] was more than 100 µM in each case. The TGI in assay [5], in assay [6], in [7] and in assay [8] was more than 100 µM throughout.
As for `O=[Se]([O-])c1ccccc1.O=[Se]([O-])c1ccccc1.[OH3+].[OH3+].[Pt+2]`, the GI50 was 16.5 µM in assay [1]; 12.2 µM in assay [2]; 9.51 µM in assay [3]; 22.7 µM in [9]; 2.19 µM in assay [10]; 2.15 µM in assay [4]. The GI50 in assay [5] is 56.6 µM; in assay [6] it was 10 µM; in [7], 5.24 µM; in assay [8] it was 3.62 µM. Also, the TGI was more than 48.8 µM in assay [1]; 58.8 µM in assay [2]; 17.2 µM in [3]; 40.6 µM in [9]; 5.66 µM in assay [10]; 10.3 µM in [4]. For the same compound, the TGI in [5] is more than 100 µM; in assay [6], 34.6 µM; in assay [7], 25.2 µM; in assay [8] it was more than 42.4 µM.
For the compound `O=C(Nc1ccc(I)cc1C(=O)NCCO)c1cccs1`, the TGI in assay [2], in assay [3], in [9], in assay [10], in assay [4] and in assay [5] was more than 100 µM each time. Besides, the TGI in assay [6], in [7] and in [8] was more than 100 µM in each case.
Consider `Nc1n[nH]c(=O)[nH]1`, for which the TGI in assay [1], in [2], in [3], in assay [9], in [10] and in assay [4] was more than 100 µM in each case. Moreover, the TGI in assay [5], in assay [6], in assay [7] and in assay [8] was more than 100 µM in each case.
As for `CCC(=O)C(c1ccccc1)c1ccccn1` (configuration not stated), the TGI in assay [1], in assay [2], in assay [3], in assay [9], in assay [10] and in assay [4] was more than 100 µM each time. Also, the TGI in assay [5] and in assay [7] was more than 100 µM each time.
